Tests used:
[1] = tested on: RPMI-8226; experiment: CellTiter-Glo cell viability assay after GSPT1 knockdown, RPMI-8226; type: cell-based, human; details: RPMI-8226 expressing shGSPT1-1 or shGSPT1-3 vs parental or control shRNA, 0.01 nM to 0.1 μM, day 9
Description: (§1) The effect of depletion of GSPT1 on the anti-proliferative effect of Compound C was determined in human multiple myeloma (MM) cell lines DF15 and RPMI-8226. Treatment compounds were titrated from 0.01 nM to 0.1 μM. Cell proliferation was measured by the CellTiter-Glo cell viability assay (RLU-Relative Luminescent Unit) at day 9 after GSPT1 knockdown by shGSPT1-1 or shGSPT1-3.

[2] = tested on: HEK 293FT cells; experiment: CellTiter-Glo cell viability assay, HEK 293FT cells with GSPT1 shRNA; type: cell-based, human
Description: The effect of depletion of GSPT1 on Compound C-induced anti-proliferation was examined in HEK 293FT cells. Cells were infected with either expression vector alone, or vector containing control shRNA or GSPT1-specific shRNA. The cells were then treated with Compound C at different concentrations. Cell proliferation was measured by the CellTiter-Glo cell viability assay (RLU-Relative Luminescent Unit).

[3] = tested on: XBP1 and ATF6 pathways; experiment: RNA level of XBP1 and ATF6 pathway components in DF15 MM cells; type: cell-based, human; details: DF15, 20 nM, 5, 10, or 23 hours
Description: The mechanism of Compound C-activated XBP1 and ATF6 pathways was studied in DF15 MM cells. Cells were treated with DMSO or 20 nM Compound C for 5, 10, or 23 hours. The RNA level of variant cellular components along the XBP1 and ATF6 pathways was measured and normalized with GAPDH.

[4] = tested on: DF15; experiment: CellTiter-Glo cell viability assay after GSPT1 knockdown, DF15; type: cell-based, human; details: DF15 expressing shGSPT1-1 or shGSPT1-3 vs parental or control shRNA, 0.01 nM to 0.1 μM, day 9
Description: as §1

[5] = tested on: normal peripheral blood mononuclear cell (PBMC); experiment: Response of normal PBMC: GSPT1, ATF3, DDIT3 and apoptosis indicators; type: cell-based; details: 20 hours
Description: The response of PBMC to Compound C treatment was monitored by measuring the expression of GSPT1, ATF3, DDIT3, and downstream apoptosis indicators in PBMC. PBMCs were treated with 1 nM, 10 nM, 100 nM, or 1000 nM of Compound C for 20 hours. […] Thus, GSPT1, ATF3, DDIT3, cleaved Caspase-3, and cleaved PARP can serve as biomarkers predicting the toxicity of Compound C.

[6] = target: T1, mouse CRBN isoform 2 (IKZF1/3, GSPT1/2 as substrates) (Mus musculus, UniProt Q8C7D2, I391V); experiment: Substrate degradation in CRBN−/− cells expressing mouse CRBN isoform 2 or mutants; type: cell-based; details: mouse CRBN isoform 2 I391V; 10 μM lenalidomide or 1 μM Compound C
T1 construct: expressed in transfected cells; host or cells: CRBN-/- cells (elsewhere: 293FT, CRISPR)
T1 sequence (Q8C7D2 whole entry I391V, canonical isoform): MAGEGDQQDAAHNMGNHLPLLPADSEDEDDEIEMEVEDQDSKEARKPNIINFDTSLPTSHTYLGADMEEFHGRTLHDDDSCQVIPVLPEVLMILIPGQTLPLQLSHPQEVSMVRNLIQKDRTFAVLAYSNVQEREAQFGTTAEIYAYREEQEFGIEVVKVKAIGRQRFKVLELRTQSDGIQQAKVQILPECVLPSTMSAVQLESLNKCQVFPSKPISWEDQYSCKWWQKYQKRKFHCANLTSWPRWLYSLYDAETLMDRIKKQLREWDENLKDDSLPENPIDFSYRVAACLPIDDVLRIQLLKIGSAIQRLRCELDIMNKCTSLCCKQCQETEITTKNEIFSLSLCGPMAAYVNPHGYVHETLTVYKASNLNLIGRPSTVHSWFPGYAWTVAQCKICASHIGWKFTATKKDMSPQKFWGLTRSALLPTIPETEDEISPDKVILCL
Description: (§2) To test this hypothesis, specific mutations in the compound-binding domain of mouse CRBN isoform2 were generated, such as V380E and I391V. Wild type mouse CRBN isoform 2 or each mutant was introduced to CRBN−/− cells. […] Thus, in mouse CRBN isoform 2, V380E and I391V mutations are sufficient to trigger the degradation of IKZF1/3 and GSPT1/2, respectively.

[7] = target: T2, mouse CRBN isoform 2 (IKZF1/3, GSPT1/2 as substrates) (Mus musculus, UniProt Q8C7D2, V380E); experiment: as above; type: cell-based; details: mouse CRBN isoform 2 V380E; 1 μM Compound C
T2 construct: expressed in transfected cells; host or cells: CRBN-/- cells (elsewhere: 293FT, CRISPR)
T2 sequence (Q8C7D2 whole entry V380E, canonical isoform): as the sequence (Q8C7D2 whole entry I391V, canonical isoform) above, with V380E, V391I counted along it
Description: as §2

[8] = tested on: U937; experiment: CellTiter-Glo cell viability assay, U937; type: cell-based, human; details: 48 hours
Description: (§3) The effect of overexpression of GSPT1 on the anti-proliferative effect of Compound C was determined in human histiocytic lymphoma cell line U937 and human leukemia cell line Molm13. Treatment compounds were titrated from 0.1 nM to 1 μM. Cell proliferation was measured by CellTiter-Glo cell viability assay at 48 hours after treatment.

[9] = tested on: HEK 293FT cells; experiment: CellTiter-Glo cell viability assay, HEK 293FT cells with GSPT1 overexpression; type: cell-based, human
Description: The effect of overexpression of GSPT1 on Compound C-induced growth inhibition was tested in HEK 293FT cells. 293 cells stably expressing GSPT1 driven by three different promoters were generated. To these cells, Compound C was added at concentration of 0, 1 nM, 10 nM, 100 nM, or 1000 nM. Cell proliferation was measured by CellTiter-Glo cell viability assay (RLU-Relative Luminescent Unit) at day 2. […] The expression level of GSPT1 was measured at 10 hours after compound treatment in the right part of FIG. 7. […] Thus, overexpression of GSPT1 confers Compound C resistance to HEK 293FT cells.

[10] = tested on: Molm13; experiment: CellTiter-Glo cell viability assay, Molm13; type: cell-based, human; details: 48 hours
Description: as §3

[11] = tested on: GSPT1/eRF3a, GSPT2/eRF3b, and HBS1L/eRF3c; experiment: Immunoblotting of CRBN/Compound C substrates in 293 HEK cells; type: cell-based, human; details: 8 hours
Description: Immunblotting analysis was performed to confirm GSPT1/eRF3a, GSPT2/eRF3b, and HBS1L/eRF3c as authentic substrates of the CRBN/Compound C complex. 293 HEK cells transiently transfected with HA-tagged HBS1L or FLAG-tagged GSPT2 were treated with Compound at the indicated concentrations for 8 hours.

[12] = tested on: PERK/EIF2a/ATF4 pathway; experiment: mRNA level of PERK/EIF2a/ATF4 pathway components in KG1 cells; type: cell-based, human; details: KG1 cells (FIG. 18C)
[13] = tested on: Human Acute Myeloblastic Leukemia Cell Line KG1; experiment: Anti-proliferative effect after GSPT1 knockdown, KG1 (FIG. 12A); type: cell-based
[14] = PBMC, 1 nM, 10 nM, 100 nM, or 1000 nM

Which results are given for `Cc1ccc(NC(=O)NCc2ccc3c(c2)CN(C2CCC(=O)NC2=O)C3=O)cc1Cl` (stereo not drawn) [Compound C, 1-(3-chloro-4-methylphenyl)-3-((2-(2,6-dioxopiperidin-3-yl)-1-oxoisoindolin-5-yl)methyl)urea]?
Anti-proliferative effect [1]: increased anti-proliferative effect; Cell proliferation ([2]; CRBN+/+ parental cells, expression vector alone, or control shRNA): show sensitivity to Compound C-induced anti-proliferation; Cell proliferation ([2]; CRBN−/− cells): cannot inhibit cell proliferation; Cell proliferation ([2]; GSPT1-specific shRNA knockdown): growth inhibition starting at even lower concentration of compound treatment; RNA level of ATF6 pathway components (XBP1, EDEM1, HYOU1, HSPA5) [3]: induces expression; RNA level of XBP1 pathway components (SEC24D, DNAJB9, XBP1, EDEM1, HYOU1) [3]: induces expression; Anti-proliferative effect [4]: increased anti-proliferative effect; Cleaved Caspase-3 [5, 14]: increasing cleaved Caspase-3; Expression of GSPT1 [5, 14]: decreases the expression of GSPT1; Level of p-EIF2α, ATF3 and DDIT3 [5, 14]: increases the level; Apoptosis ([5]; normal PBMC): induces apoptosis; Degradation of IKZF1/3 [6]: restores both lenalidomide- and Compound C-induced degradation of IKZF1/3; Degradation of GSPT1/2 [7]: restores Compound C-induced degradation of GSPT1/2; Anti-proliferative effect ([8]; U937, exogenous GSPT1 overproduced via EF1a promoter): the anti-proliferative effect of Compound C reduces; Anti-proliferative effect ([8]; U937 CRBN −/− cells): completely abolished; Cell proliferation ([8]; U937 parental cells, 0.1 nM to 1 μM): inhibits cell proliferation; Cell proliferation (growth inhibition) ([9]; GSPT1 overexpression driven by different promoters, 0-1000 nM, day 2): confers various degrees of resistance to Compound C-induced growth inhibition; Cell proliferation (compound resistance) ([9]; cells expressing CMV-GSPT1): exhibit the highest level of Compound C resistance; Cell proliferation ([9]; parental cells, 0-1000 nM, day 2): inhibits cell proliferation in parental cells; Anti-proliferative effect ([10]; Molm13, exogenous GSPT1 overproduced via EF1a promoter): the anti-proliferative effect of Compound C reduces; Anti-proliferative effect ([10]; Molm13 CRBN −/− cells): completely abolished; Cell proliferation ([10]; Molm13 parental cells, 0.1 nM to 1 μM): inhibits cell proliferation; Binding partners of CRBN induced by compound binding [11]: GSPT1/eRF3a, GSPT2/eRF3b, and HBS1L/eRF3c are binding partners of CRBN induced by Compound C binding; Degradation of GSPT1/eRF3a, GSPT2/eRF3b, and HBS1L/eRF3c ([11]; increased concentration): induces degradation; mRNA level of ATF4, ATF3, DDIT3, PPP1R15A, GADD45A, TNFRSF1B, and TNFRSF10B [12]: Compound C-induced expression of ATF4, ATF3, DDIT3, PPP1R15A, GADD45A, TNFRSF1B, and TNFRSF10B; Anti-proliferative effect ([13]; KG1 (FIG. 12A)): exhibited anti-proliferative effect; Anti-proliferative effect ([13]; KG1, GSPT1 downregulated by shGSPT1-1 or shGSPT1-3): the anti-proliferative effect increased
